For orientation: inhibition means the relative decrease from the control value, in per cent.

For the first test, the target named is T1, His-hMAGL (recombinant polyhistidine tagged human MAGL protein) (Homo sapiens, UniProt Q99685).
T1 construct: made in house; host or cells: E. coli BL21(DE3)
T1 sequence (Q99685 1-303): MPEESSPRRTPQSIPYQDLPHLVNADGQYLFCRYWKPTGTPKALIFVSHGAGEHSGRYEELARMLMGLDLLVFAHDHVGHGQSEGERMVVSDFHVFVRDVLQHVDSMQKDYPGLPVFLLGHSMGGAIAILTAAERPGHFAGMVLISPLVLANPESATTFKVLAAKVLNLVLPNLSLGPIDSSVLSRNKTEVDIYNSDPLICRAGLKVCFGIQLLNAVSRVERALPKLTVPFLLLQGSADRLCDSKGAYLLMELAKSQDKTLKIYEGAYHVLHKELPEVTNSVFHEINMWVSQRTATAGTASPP
Put plainly: Measurement of MAGL inhibitory activity (arachidonic acid production from 2-arachidonylglycerol, RapidFire-mass spectrometry). Type of test: biochemical. The settings on record: MAGL inhibitory rate at 10 μM test compound; 60 min preincubation with His-hMAGL, 2-arachidonylglycerol substrate, 10 min reaction at room temperature. In short, it runs like this:
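Inhibition (%) was derived from arachidonic acid levels relative to enzyme-free and compound-free groups. Product was measured by online C4 solid-phase extraction and triple-quadrupole MS in negative SRM mode, corrected by arachidonic acid-d8 (3 μM in the acetonitrile added). Substrate was 2-arachidonylglycerol; enzyme was His-tagged recombinant human MAGL.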
For the molecule `O=C1COc2cc(F)c(C(=O)N3CCC(COc4cccn5nccc45)CC3)cc2N1` [Example 274, 7-fluoro-6-((4-((pyrazolo[1,5-a]pyridin-4-yloxy)methyl)piperidin-1-yl)carbonyl)-2H-1,4-benzoxazin-3(4H)-one], the inhibition at 10 µM came out at 102%.

In the case of `O=C1COc2cc(F)c(C(=O)N3CCC(COc4cccc5ccnn45)CC3)cc2N1` [Example 275, 7-fluoro-6-((4-((pyrazolo[1,5-a]pyridin-7-yloxy)methyl)piperidin-1-yl)carbonyl)-2H-1,4-benzoxazin-3(4H)-one], the inhibition at 10 µM amounted to 99%.

For the molecule `Cc1ccnc(-c2ccc(OCC3CN(C(=O)c4cc5c(cc4F)OCC(=O)N5)C3)c(F)c2)c1` [Example 276], the inhibition at 10 µM amounted to 97%.

In the case of `O=C1COc2cc(F)c(C(=O)N3CC(COc4ccc(C(F)(F)F)c(F)c4)C3)cc2N1` [Example 277, 7-fluoro-6-((3-((3-fluoro-4-(trifluoromethyl)phenoxy)methyl)azetidin-1-yl)carbonyl)-2H-1,4-benzoxazin-3(4H)-one], the inhibition at 10 µM worked out at 104%.

For `O=C1COc2cc(F)c(C(=O)N3CC(COc4ccc(F)c(C(F)(F)F)c4)C3)cc2N1` [Example 278, 7-fluoro-6-((3-((4-fluoro-3-(trifluoromethyl)phenoxy)methyl)azetidin-1-yl)carbonyl)-2H-1,4-benzoxazin-3(4H)-one], the inhibition at 10 µM was 103%.

Take `O=C1COc2cc(F)c(C(=O)N3CC(COc4cnc5c(c4)CCCO5)C3)cc2N1` [Example 279, 6-((3-((3,4-dihydro-2H-pyrano[2,3-b]pyridin-6-yloxy)methyl)azetidin-1-yl)carbonyl)-7-fluoro-2H-1,4-benzoxazin-3(4H)-one]: the inhibition at 10 µM turned out to be 101%.

For `O=C1COc2cc(F)c(C(=O)N3CC(COC4CCCCC4)C3)cc2N1` [Example 280, 6-((3-((cyclohexyloxy)methyl)azetidin-1-yl)carbonyl)-7-fluoro-2H-1,4-benzoxazin-3(4H)-one], the inhibition at 10 µM is 102%.

In the case of `O=C1COc2cc(F)c(C(=O)N3CC(COc4ccc(F)cc4Cl)C3)c(F)c2N1` [Example 281, 6-((3-((2-chloro-4-fluorophenoxy)methyl)azetidin-1-yl)carbonyl)-5,7-difluoro-2H-1,4-benzoxazin-3(4H)-one], the inhibition at 10 µM is 100%.

Regarding `O=C1COc2cc(F)c(C(=O)N3CC(COC4CCC(F)(F)CC4)C3)cc2N1` [Example 282, 6-((3-(((4,4-difluorocyclohexyl)oxy)methyl)azetidin-1-yl)carbonyl)-7-fluoro-2H-1,4-benzoxazin-3(4H)-one], the inhibition at 10 µM was 99%.

In the case of `CC1(COc2ccc(F)cc2Cl)CN(C(=O)c2cc3c(cc2F)OCC(=O)N3)C1` [Example 283, 6-((3-((2-chloro-4-fluorophenoxy)methyl)-3-methylazetidin-1-yl)carbonyl)-7-fluoro-2H-1,4-benzoxazin-3(4H)-one], the inhibition at 10 µM was 101%.

With `O=C1COc2cc(F)c(C(=O)N3CCC(COc4ccc5c(c4)CCCC5)CC3)cc2N1` [Example 284, 7-fluoro-6-((4-((5,6,7,8-tetrahydronaphthalen-2-yloxy)methyl)piperidin-1-yl)carbonyl)-2H-1,4-benzoxazin-3(4H)-one], the inhibition at 10 µM is 96%.

Regarding `O=C1COc2cc(F)c(C(=O)N3CCC(COc4ccccc4)CC3)cc2N1` [Example 285, 7-fluoro-6-((4-(phenoxymethyl)piperidin-1-yl)carbonyl)-2H-1,4-benzoxazin-3(4H)-one], the inhibition at 10 µM amounted to 98%.

With `O=C1COc2cc(F)c(C(=O)N3CC(COc4ccc5c(c4Br)CCCC5)C3)cc2N1` [Example 286, 6-((3-(((1-bromo,-5,6,7,8-tetrahydronaphthalen-2-yl)oxy)methyl)azetidin-1-yl)carbonyl)-7-fluoro-2H-1,4-benzoxazin-3(4H)-one], the inhibition at 10 µM turned out to be 98%.

In the case of `Cc1cc(OCC2CN(C(=O)c3cc4c(cc3F)OCC(=O)N4)C2)ccc1F` [Example 287, 7-fluoro-6-((3-((4-fluoro-3-methylphenoxy)methyl)azetidin-1-yl)carbonyl)-2H-1,4-benzoxazin-3(4H)-one], the inhibition at 10 µM was 100%.

Consider `O=C1COc2cc(F)c(C(=O)N3CC(COc4ccc(C(F)F)cc4F)C3)cc2N1` [Example 288, 6-((3-((4-(difluoromethyl)-2-fluorophenoxy)methyl)azetidin-1-yl)carbonyl)-7-fluoro-2H-1,4-benzoxazin-3(4H)-one], for which the inhibition at 10 µM stood at 101%.

Turning to `O=C1COc2cc(F)c(C(=O)N3CC(COc4ccc(-c5cccc(F)n5)cc4F)C3)cc2N1` [Example 289, 7-fluoro-6-((3-((2-fluoro-4-(6-fluoropyridin-2-yl)phenoxy)methyl)azetidin-1-yl)carbonyl)-2H-1,4-benzoxazin-3(4H)-one], the inhibition at 10 µM stood at 88%.

Take `Cc1nc(F)ccc1-c1ccc(OCC2CN(C(=O)c3cc4c(cc3F)OCC(=O)N4)C2)c(F)c1` [Example 290, 7-fluoro-6-((3-((2-fluoro-4-(6-fluoro-2-methylpyridin-3-yl)phenoxy)methyl)azetidin-1-yl)carbonyl)-2H-1,4-benzoxazin-3(4H)-one]: the inhibition at 10 µM was determined as 100%.

Take `O=C1COc2cc(F)c(C(=O)N3CC(COc4ccc(N5CC(F)C5)cc4Cl)C3)cc2N1` [Example 291, 6-((3-((2-chloro-4-(3-fluoroazetidin-1-yl)phenoxy)methyl)azetidin-1-yl)carbonyl)-7-fluoro-2H-1,4-benzoxazin-3(4H)-one]: the inhibition at 10 µM was 100%.

For the molecule `O=C1COc2cc(F)c(C(=O)N3CC(COc4ccc(N5CC(F)C5)cc4F)C3)cc2N1` [Example 292, 7-fluoro-6-((3-((2-fluoro-4-(3-fluoroazetidin-1-yl)phenoxy)methyl)azetidin-1-yl)carbonyl)-2H-1,4-benzoxazin-3(4H)-one], the inhibition at 10 µM was found to be 100%.

Take `CC(Oc1ccc(F)cc1Cl)C1CCN(C(=O)c2cc3c(cc2F)OCC(=O)N3)CC1` (stereo not shown) [Example 293, 6-((4-(1-(2-chloro-4-fluorophenoxy)ethyl)piperidin-1-yl)carbonyl)-7-fluoro-2H-1,4-benzoxazin-3(4H)-one]: the inhibition at 10 µM was determined as 102%.

As to `CC(Oc1ccc(F)cc1F)C1CCN(C(=O)c2cc3c(cc2F)OCC(=O)N3)CC1` (stereo not shown) [Example 294, 6-((4-(1-(2,4-difluorophenoxy)ethyl)piperidin-1-yl)carbonyl)-7-fluoro-2H-1,4-benzoxazin-3(4H)-one], the inhibition at 10 µM came to 99%.

With `CC(Oc1ccc(F)cc1Cl)C1CN(C(=O)c2cc3c(cc2F)OCC(=O)N3)C1` (stereo not shown) [Example 297, 6-((3-(1-(2-chloro-4-fluorophenoxy)ethyl)azetidin-1-yl)carbonyl)-7-fluoro-2H-1,4-benzoxazin-3(4H)-one], the inhibition at 10 µM came to 99%.

In the case of `CC(Oc1ccc(F)cc1F)C1CN(C(=O)c2cc3c(cc2F)OCC(=O)N3)C1` (stereo not shown) [Example 298, 6-((3-(1-(2,4-difluorophenoxy)ethyl)azetidin-1-yl)carbonyl)-7-fluoro-2H-1,4-benzoxazin-3(4H)-one], the inhibition at 10 µM is 99%.

As to `CC(Oc1ccc2cn[nH]c2c1)C1CN(C(=O)c2cc3c(cc2F)OCC(=O)N3)C1` (stereo not shown) [Example 299, 7-fluoro-6-((3-(1-(1H-indazol-6-yloxy)ethyl)azetidin-1-yl)carbonyl)-2H-1,4-benzoxazin-3(4H)-one], the inhibition at 10 µM worked out at 100%.

For `CC(Oc1cccc(F)c1F)C1CN(C(=O)c2cc3c(cc2F)OCC(=O)N3)C1` (stereo not shown) [Example 302, 6-((3-(1-(2,3-difluorophenoxy)ethyl)azetidin-1-yl)carbonyl)-7-fluoro-2H-1,4-benzoxazin-3(4H)-one], the inhibition at 10 µM is 102%.

On to `CC(Oc1cc(F)ccc1F)C1CN(C(=O)c2cc3c(cc2F)OCC(=O)N3)C1` (stereo not shown) [Example 303, 6-((3-(1-(2,5-difluorophenoxy)ethyl)azetidin-1-yl)carbonyl)-7-fluoro-2H-1,4-benzoxazin-3(4H)-one], for which the inhibition at 10 µM is 103%.

As to `CC(Oc1ccc(F)c(F)c1)C1CN(C(=O)c2cc3c(cc2F)OCC(=O)N3)C1` (stereo not shown) [Example 304, 6-((3-(1-(3,4-difluorophenoxy)ethyl)azetidin-1-yl)carbonyl)-7-fluoro-2H-1,4-benzoxazin-3(4H)-one], the inhibition at 10 µM is 99%.

The test is the same for the next values; noted with them: MAGL inhibitory rate at 10 μM test compound; 60 min preincubation with His-hMAGL, 2-arachidonylglycerol substrate, 10 min reaction at room temperature; 10 µM.
In the case of `CC(Oc1ccc(F)cc1Cl)C1CCN(C(=O)c2cc3c(cc2F)OCC(=O)N3)CC1` (stereo not shown) [Example 295, 6-((4-(1-(2-chloro-4-fluorophenoxy)ethyl)piperidin-1-yl)carbonyl)-7-fluoro-2H-1,4-benzoxazin-3(4H)-one], the “% inhibition (10 μM)” value stood at 101%.

As to `CC(Oc1ccc(F)cc1Cl)C1CCN(C(=O)c2cc3c(cc2F)OCC(=O)N3)CC1` (stereo not shown) [Example 296, 6-((4-(1-(2-chloro-4-fluorophenoxy)ethyl)piperidin-1-yl)carbonyl)-7-fluoro-2H-1,4-benzoxazin-3(4H)-one], the “% inhibition (10 μM)” value turned out to be 101%.

Consider `CC(Oc1ccc(F)cc1F)C1CN(C(=O)c2cc3c(cc2F)OCC(=O)N3)C1` (stereo not shown) [Example 300, 6-((3-(1-(2,4-difluorophenoxy)ethyl)azetidin-1-yl)carbonyl)-7-fluoro-2H-1,4-benzoxazin-3(4H)-one], for which the “% inhibition (10 μM)” value was 102%.

For the molecule `CC(Oc1ccc(F)cc1F)C1CN(C(=O)c2cc3c(cc2F)OCC(=O)N3)C1` (stereo not shown) [Example 301, 6-((3-(1-(2,4-difluorophenoxy)ethyl)azetidin-1-yl)carbonyl)-7-fluoro-2H-1,4-benzoxazin-3(4H)-one], the “% inhibition (10 μM)” value stood at 99%.

The values above are taken from patent US10106556B2, “Heterocyclic compound” (TAKEDA PHARMACEUTICAL COMPANY LIMITED, priority 2015, dated 2018).
